According to US20020072051A1, “Screen for identifying inhibitors of GPI anchoring” (priority 2000, published 2002):

Legend:
wild type yeast strain = assay: SDS hypersensitivity assay; type: cell-based; conditions: SDS in the growth media
Excerpt: Published data on a mcd4 mutant strain have shown that it has a number of characteristic phenotypes including increased sensitivity to SDS, an osmotic destabilizing detergent. The presence of as little as 0.004% SDS in the growth media leads to increased sensitivity of a wild type yeast strain to GPI-anchor inhibitors and thereby allows for the rapid screening of analogs. Again, this is a potentially information-rich assay but is subject to the same technical limitations discussed above for the OER assay.

[1] = test system: MCD4 catalyzed step in the GPI-anchor biosynthesis pathway; conditions: cited from earlier work
Mcd4p = target: T1, Mcd4p (Saccharomyces cerevisiae, UniProt P36051); assay: MCD4 overexpression and inositol-labeling experiments in mcd4-174; type: cell-based; conditions: MCD4 overexpression; mcd4-174 mutant strain
T1 construct: overexpressed by cloning the gene under the control of its endogenous promoter in 2 micron (multi-copy) vectors; expressed in transfected cells; host or cells: yeast (S. cerevisiae) cells carrying MCD4 on a 2 micron multi-copy vector; also the mcd4-174 mutant strain for inositol labelling
T1 sequence (P36051 1-919): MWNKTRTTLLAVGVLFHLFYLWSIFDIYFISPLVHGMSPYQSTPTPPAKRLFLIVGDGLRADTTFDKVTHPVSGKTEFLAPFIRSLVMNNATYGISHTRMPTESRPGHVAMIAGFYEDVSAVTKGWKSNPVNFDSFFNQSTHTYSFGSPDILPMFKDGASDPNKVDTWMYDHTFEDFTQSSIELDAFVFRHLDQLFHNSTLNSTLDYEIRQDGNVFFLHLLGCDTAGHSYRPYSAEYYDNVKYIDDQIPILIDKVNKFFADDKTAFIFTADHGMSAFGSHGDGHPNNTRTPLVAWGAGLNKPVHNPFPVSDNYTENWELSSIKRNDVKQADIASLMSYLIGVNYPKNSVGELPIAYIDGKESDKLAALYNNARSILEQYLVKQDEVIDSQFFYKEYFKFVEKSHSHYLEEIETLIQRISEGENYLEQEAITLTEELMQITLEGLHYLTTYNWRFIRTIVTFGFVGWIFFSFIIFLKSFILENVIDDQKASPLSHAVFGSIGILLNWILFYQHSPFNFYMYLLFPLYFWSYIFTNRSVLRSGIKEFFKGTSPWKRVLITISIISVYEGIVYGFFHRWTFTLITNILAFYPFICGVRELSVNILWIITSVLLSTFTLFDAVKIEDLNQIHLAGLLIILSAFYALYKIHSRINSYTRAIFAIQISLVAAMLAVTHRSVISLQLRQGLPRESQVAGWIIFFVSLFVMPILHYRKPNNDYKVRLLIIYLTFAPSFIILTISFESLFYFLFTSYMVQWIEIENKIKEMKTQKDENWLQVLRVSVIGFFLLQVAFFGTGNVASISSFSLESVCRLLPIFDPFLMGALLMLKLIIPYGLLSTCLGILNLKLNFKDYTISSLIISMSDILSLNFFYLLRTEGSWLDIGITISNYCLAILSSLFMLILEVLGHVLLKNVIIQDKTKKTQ
Excerpt: An overexpression resistance (OER) assay was employed to determine the cellular target of compounds isolated via the primary assay. Each of the known genes in the GPI pathway were overexpressed by cloning the gene under the control of its endogenous promoter in 2 micron (multi-copy) vectors. This is a rapid and very powerful assay, but has certain limitations. For example, with a number of hits, precipitation of the compound can be observed when spotted onto plates. […] In such cases, the ability to detect increased resistance in the shoulder region is limited by the small zone size. […] Therefore, the OER assay, while very powerful and rapid, may be limiting when working with compounds that are weakly AF.
Studies on a natural compound, CJ-19089 (also known as YW3548, a terpenoid lactone) have documented that this compound targets the MCD4 catalyzed step in the GPI-anchor biosynthesis pathway. […] This inhibitor has proven to be a very valuable tool for examining the pathway and establishing standards for chromatographic analysis. […] CJ-19089 was used as a positive control in each assay and was used in comparison to untreated samples for assay development.

GPI anchor biosynthesis = assay: in-vitro GPI anchor biosynthesis assay; type: biochemical; conditions: UDP-[3H]-GlcNAc, ATP, Coenzyme A, GDP-mannose; TLC
Excerpt: Crude lysate from hypotonic lysing of spheroplasts as well as microsomal preparations can be used as an enzyme source for a coupled in vitro assay. Addition of UDP-[^3H]-GlcNAc, ATP, Coenzyme A and GDP-mannose provides the necessary substrates to synthesize a complete precursor from endogenous PI and fatty acid.

UPR pathway = assay: UPRE::lacZ reporter induction screen (primary assay); type: cell-based, Saccharomyces cerevisiae; conditions: yeast cells containing 3X UPRE-CYClMINlacz, S. cerevisiae Δmdr mutant
Excerpt: Several UPRE::lacz reporter plasmids were constructed and used to transform a S. cerevisiae Δ mdr mutant and the transformants assessed for their ability to selectively respond to tunicamycin. The reporter sequence 3X UPRE-CYClMINlacz (FIG. 2) provided a selective, sensitive, and robust screening response to tunicamycin treatment and was selected for use in the Very High Throughput Screen (vHTS; Example 2). […] The activity of an associated β-galactosidase reporter gene thus served as an indirect signal of UPR-pathway stimulation.
The yeast strains were diploid Δmdr mutants of Saccharomyces cerevisiae: MMB 1663 (3XUPRE CYClMIN::lacz). Yeast glycerol stocks were prepared by culturing MMB 1663 (3XUPRE CYClMIN::lacZ) overnight to an OD 600 nm of 0.500. The culture was concentrated by centrifugation at 1000×g for 10 minutes and the pellet resuspended in fresh medium to an OD 600 nm of 1.00. An equal volume of HR Medium with 50% glycerol was added, producing a suspension of cells with an OD 600 nm of 0.500 and a final concentration of 25% glycerol. […]
4. […] (Packard TopSeal-A Plate Tape is not required for either plate reader when volumes are ≦50 μl for 384-well or ≦200 μl for 96-well plates).
5. After 90 minutes, β-galactosidase activity was read, using a 90 to 240 minute window. […]

OC(Cn1cncn1)(Cn1cncn1)c1ccc(F)cc1F [fluconazole]
result on SDS plates (wild type yeast strain): unambiguous positive result

C=C1[C@@H]2C[C@@H]3[C@H](C(C)C)[C@@H](OC(=O)CC(C)(O)CC(C)CC)C[C@@]3(C)C[C@H]2/C(C)=C\C[C@@H]2[C@@H](C)OC(=O)[C@H](O)[C@]12O (some centres unmarked) [CJ-19089]
incorporation of [3H]myo-inositol into proteins [1]: prevents the incorporation of [^3H]myo-inositol into proteins
step of GPI anchor biosynthesis blocked [1]: specifically blocks the addition of the third mannose to the intermediate structure Man2-GlcN-acylPI
toxicity [1]: toxic
transport of GPI-anchored proteins to the Golgi apparatus [1]: prevents transport of GPI-anchored proteins to the Golgi apparatus
cellular target (Mcd4p): the target of this compound is Mcd4p
accumulation of CJ-lipid (GPI anchor biosynthesis): the CJ-lipid can be visualized

tunicamycin
lacZ reporter gene transcription (UPR-pathway stimulation) (UPR pathway): over transcribed
